This test addresses T1, MBP-ARC (Maltose Binding Protein tagged Androgen Receptor C-termini) (Homo sapiens, UniProt P10275).
T1 construct: made in house; host or cells: E. coli DH5a
T1 sequence (P10275 609-919): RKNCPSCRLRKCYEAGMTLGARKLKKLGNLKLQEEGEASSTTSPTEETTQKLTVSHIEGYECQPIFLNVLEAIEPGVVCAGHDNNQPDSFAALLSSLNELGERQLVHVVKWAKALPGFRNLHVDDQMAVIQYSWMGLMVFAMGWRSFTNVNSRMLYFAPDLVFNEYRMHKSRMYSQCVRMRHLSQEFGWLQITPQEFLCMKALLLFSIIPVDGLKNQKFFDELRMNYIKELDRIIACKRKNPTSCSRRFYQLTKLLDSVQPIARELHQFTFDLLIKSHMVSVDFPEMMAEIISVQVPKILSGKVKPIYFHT
The test is described as follows: in vitro binding assay - hydroxyapatite method ([3H]-DHT competition). The note with it: concentration of unlabeled test compound at which 50% of the [3H]-DHT is still bound to MBP-ARC; 2 nM [3H]-DHT, 50 µg/ml MBP-ARC, three hours.

pIC50: −log10 of the molar value.

Procedure: 1.9 The in vitro binding assay - hydroxyapatite method
800 mM NaCl, 10 % glycerol, 1mg/ml BSA and 2mM DTT to obtain a 100 l mixture solution.
mixture solution was incubated at 4 for 3 hours.
After incubation, BioGel HT (Bio-Rad Laboratories) was added to the solution and incubated on ice
for 15 minutes, during which vortexing was done every 5 minutes. The incubated solution was centrifuged
at 1,000 rpm for a minute and a supernatant was removed.
A wash buﬀer consisting of 40 mM Tris-HCl pH 7.6, 100 mM KCl, 1mM EDTA and 1mM EGTA and
cooled on ice was added to the precipitate by 1 ml and mixed. The produced solution was centrifuged
at 1,000 rpm and a supernatant was removed. This process was repeated three times.
The collected precipitate was suspended in 3 ml Aquasol (New England nuclear Corp.). Radioactivity
of the suspended solution in a scintillation vial (Perkin Elmer) was measured by a liquid scintillation
test compounds was regarded as IC50 of the test compound.

The molecule `Cc1c(-c2ccc(NC(=O)C(C)(C)C)cc2)nc2ccc(Cl)cn12` [T5853872] had a pIC50 of 4.10.

Broadly, the pIC50 is the negative decadic logarithm of the IC50, by convention in mol/L.

The values above are taken from publication PMC2685987, “Integrating Statistical Predictions and Experimental Verifications for Enhancing Protein-Chemical Interaction Predictions in Virtual Screening” (PLoS Computational Biology, 2009).
